In patent US3935309A, “Synergistic combinations of phosphonomycin and bacteriostatic agents” (Merck & Co., Inc., priority 1974, dated 1976):

Assays:
Staphylococcus aureus [1] = test: criss-cross MIC method in nutrient broth (Example 2); format: cell-based; settings: 37°C, 24 hours, two experiments on different days
Experimental: This method involved the simultaneous determination of the MIC (minimum inhibitory concentration) of each member of a pair of antibiotics and of combinations of the two in nutrient broth (NB) containing 0.2% yeast extract (YE). Serial two-fold dilutions were made throughout the experiment, and the starting inoculum consisted of approximately 25,000 cells/ml. of Staphylococcus aureus. Incubation was at 37°C. for 24 hours. Identical experiments were performed on two different days.

Escherichia coli 2017 = test: Combined antibiotic therapy of Escherichia coli infection in mice (Example 5); format: in vivo, mice infected with Escherichia coli 2017
Description: For example, using Escherichia coli 2017 as the infecting agent, sodium phosphonomycin was titrated alone and in the presence 5 and also in the presence of 0.5γtetracycline, while tetracycline was titrated alone and in the presence of 50γ, and also in the presence of 5γof sodium phosphonomycin. The two drugs were given by the subcutaneous route at separate sites on the ventral surface of the mouse. Such therapy was given only at the time of infection for the Escherichia coli and Pseudomonas aeruginosa tests but both at the time of infection and 6 hours later for all other tests. Infection was given intraperitoneally using broth suspensions of the test organism.

Proteus vulgaris = test: MIC by two-fold serial broth dilution, alone and in combination (Example 1); format: cell-based; settings: for MIC: Proteus vulgaris, read-out: MIC of 2nd Subst.
Experimental: (§1) The MIC (minimum inhibitory concentration) of phosphonomycin and each of the other antibiotics by itself was determined before the combination synergy experiment was begun, as follows: 2 ml. of a double strength solution in sterile distilled water of the highest strength to be tested (usually 1000γ) was added to a tube of double strength nutrient broth (NB) and mixed thoroughly. Two-fold serial dilutions were then made by transferring 2 ml. to the next tube (1 × NB) and so on for approximately 12 tubes. The tubes were inoculated with one drop each of a 1:50 dilution of a culture adjusted to a Lumetron 60 reading in NB + 0.2% yeast extract so as to provide a concentration of cells of approximately 25,000/ml. The tubes were then incubated at 37°C. and examined for growth at 24, 48 and 72 hours.
(§2) In the combination experiment, the MIC value obtained as described above was used as approximately the midpoint of the range to be tested for each of the two antibiotics of the combination. In a manner similar to the above, two-fold dilutions of the first substance in the combination were made except that 1.8 ml. volumes were used and a 2.2 × strength solution of both the antibiotic and the NB were made. The second antibiotic of the combination was added to duplicate rows of serial dilutions of the first substance as follows: 0.2 ml. in NB of a [formula] and a [formula] respectively, of the second substance was added to each tube in a row of serial dilutions of the first antibiotic. The final concentration that resulted enabled the determination of the effect of both MIC/4 and MIC/8 of each substance in the presence of from approximately 32 MIC to [formula] of the other. Inocula were added as in the initial single MIC experiment.

Streptococcus faecalis = test: as above; format: cell-based; settings: for MIC: Enterococcus faecalis, read-out: MIC of 2nd Subst.
Experimental: as §1, §2

pathogenic bacteria = test: in vitro combination tests with various pathogens (general description); format: cell-based; settings: various strains of pathogenic bacteria
Description: Other experimental results have shown that novobiocin, chlortetracycline and sulfisoxazole are potentiated when combined with phosphonomycin and tested with various strains of pathogenic bacteria.

Staphylococcus aureus [2] = test: MIC by two-fold serial broth dilution, alone and in combination (Example 1); format: cell-based
Experimental: as §1, §2

Pseudomonas aeruginosa = test: as above; format: cell-based
Experimental: as §1, §2

[3] = chloramphenicol repeat test, 7 LD50, chloramphenicol titrated, phosphonomycin constant 5
[4] = chloramphenicol repeat test, 7 LD50, chloramphenicol titrated, phosphonomycin constant 50
[5] = chloramphenicol test 1, 9 LD50, chloramphenicol titrated, phosphonomycin constant 10
[6] = chloramphenicol test 1, 9 LD50, chloramphenicol titrated, phosphonomycin constant 100

## O=C(N[C@H](CO)[C@H](O)c1ccc([N+](=O)[O-])cc1)C(Cl)Cl [Chloramphenicol]
Staphylococcus aureus [1]; Staphylococcus aureus, 24 h, read-out: CLM MIC, alone
  MIC: 7.8 µg/mL
Staphylococcus aureus [1]; alone, listed as CLM
  CLM MIC: 3.9 µg/mL
Escherichia coli 2017; chloramphenicol repeat test, 7 LD50, alone
  % ED50: 100%
Escherichia coli 2017; chloramphenicol repeat test, 7 LD50, alone, single dose at 0 hour, phosphonomycin as sodium salt
  s.c. ED50: 120 µg
Escherichia coli 2017; [3]
  % ED50: 39%
  s.c. ED50: 47 µg
Escherichia coli 2017; [4]
  % ED50: 17%
  s.c. ED50: 20 µg
Escherichia coli 2017; chloramphenicol repeat test, 7 LD50, phosphonomycin titrated, chloramphenicol constant 5
  % ED50: 4%
Escherichia coli 2017; chloramphenicol repeat test, 7 LD50, phosphonomycin titrated, chloramphenicol constant 50
  % ED50: 42%
Escherichia coli 2017; chloramphenicol test 1, 9 LD50, alone
  % ED50: 100%
Escherichia coli 2017; [5]
  % ED50: 55%
  s.c. ED50: 250 µg
Escherichia coli 2017; [6]
  % ED50: 24%
  s.c. ED50: 107 µg
Escherichia coli 2017; chloramphenicol test 1, 9 LD50, phosphonomycin titrated, chloramphenicol constant 3
  % ED50: 1%
Escherichia coli 2017; chloramphenicol test 1, 9 LD50, phosphonomycin titrated, chloramphenicol constant 30
  % ED50: 7%

## CN(C)[C@@H]1C(O)=C(C(N)=O)C(=O)[C@@]2(O)C(O)=C3C(=O)c4c(O)ccc(Cl)c4[C@@](C)(O)[C@H]3C[C@@H]12 [Chlortetracycline]
Proteus vulgaris
  MIC of 2nd Subst. in presence of ≤ MIC/4 of phosphonomycin: 0.25
  MIC: 2 µg/mL
Streptococcus faecalis
  MIC of 2nd Subst. in presence of ≤ MIC/4 of phosphonomycin: 0.5
  MIC: 0.5 µg/mL
Pathogenic bacteria
  potentiation when combined with phosphonomycin: potentiated

## CC[C@H]1OC(=O)[C@H](C)[C@@H](O[C@H]2C[C@@](C)(OC)[C@@H](O)[C@H](C)O2)[C@H](C)[C@@H](O[C@@H]2O[C@H](C)C[C@H](N(C)C)[C@H]2O)[C@](C)(O)C[C@@H](C)C(=O)[C@H](C)[C@@H](O)[C@]1(C)O [Erythromycin]
Proteus vulgaris
  MIC: 1000 µg/mL
Proteus vulgaris; in presence of MIC/2 instead of ≤ MIC/4
  MIC of 2nd Subst. in presence of phosphonomycin: 500 µg/mL
Staphylococcus aureus [2]
  MIC of 2nd Subst. in presence of ≤ MIC/4 of phosphonomycin: 2
Staphylococcus aureus [2]; Staphylococcus aureus, read-out: MIC of 2nd Subst.
  MIC: 8 µg/mL
Pseudomonas aeruginosa; Pseudomonas aeruginosa, read-out: MIC of 2nd Subst.
  MIC: > 16000 µg/mL
Pseudomonas aeruginosa; resistant growth present
  MIC of 2nd Subst. in presence of ≤ MIC/4 of phosphonomycin: 2000
Streptococcus faecalis
  MIC of 2nd Subst. in presence of ≤ MIC/4 of phosphonomycin: 16
  MIC: 32 µg/mL
